This note sets out measurements from ChEMBL document CHEMBL1201862, “PubChem BioAssay data set” (2004).

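48-hour exposure; five concentrations; linearly interpolated endpoints. GI50: concentration for 50% inhibition of growth.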 Activity calls are given as the source filed them. Rule as the data show it: active = GI50 up to about 1.1 µM and inactive = higher.

Test in all cases: inhibition of tumour cell growth, NCI panel, 48 h
The test system of assay [1] is U-251.
In assay [2] the test system is OVCAR-8.
For assay [3], the system named is SK-MEL-28.
Assay [4] concerns 786-0.
In assay [5] the test system is HOP-62.
For assay [6], the system named is HL-60.
For assay [7], the system named is SW-620.
Assay [8] deals with TK-10.
Assay [9] relates to SN12C.
Assay [10] deals with OVCAR-3.
For assay [11], the system named is RXF 393.
Assay [12] relates to SK-OV-3.
Assay [13] relates to EKVX.
Assay [14] concerns SK-MEL-2.
Assay [15] relates to LOX IMVI.
Assay [16] deals with SF-539.
In assay [17] the test system is CAKI-1.
Assay [18] has as its system MDA-N.
Assay [19] relates to Hs-578T.

As to `O=C1CC(c2ccccc2)=Nc2ccccc2N1`, the GI50 was > 100 µM (inactive) in assay [1]; > 100 µM (inactive) in [2]; > 100 µM (inactive) in assay [3]; > 100 µM (inactive) in assay [4]; > 100 µM (inactive) in assay [5]; 34.5 µM (inactive) in [6]. Besides, the GI50 is 21.1 µM (inactive) in assay [7]; > 100 µM (inactive) in [8]; > 100 µM (inactive) in assay [9]; > 100 µM (inactive) in assay [10]; > 100 µM (inactive) in assay [11]; > 100 µM (inactive) in assay [12]. Besides, the GI50 in assay [13] is > 100 µM (inactive); in assay [14], > 100 µM (inactive); in assay [15], 35 µM (inactive); in assay [16], > 100 µM (inactive); in assay [17] it was > 100 µM (inactive).

On to `Cc1ccc(S(=O)(=O)n2c3c(c4ccccc42)CCN2C(=O)C(S(=O)(=O)c4ccccc4)=CCC32)cc1` (stereo not drawn), for which the GI50 was 0.192 µM (active) in [18]; 0.22 µM (active) in [1]; 0.167 µM (active) in assay [2]; 0.168 µM (active) in assay [3]; 0.579 µM (active) in assay [19]; 0.178 µM (active) in assay [4]. Also, the GI50 is 0.24 µM (active) in assay [5]; 0.233 µM (active) in assay [6]; 0.281 µM (active) in [7]; 0.0646 µM (active) in assay [8]; 0.211 µM (active) in [9]; 0.164 µM (active) in [10]. Besides, the GI50 is 0.14 µM (active) in assay [11]; 1.3 µM (inactive) in assay [12]; 0.448 µM (active) in assay [13]; 0.217 µM (active) in assay [14]; 0.185 µM (active) in assay [15]; 0.191 µM (active) in assay [16]. For the same compound, the GI50 in assay [17] was 0.262 µM (active).

In the case of `CN(C)C(=S)N1C(=S)N(c2ccccc2)C(=N/c2ccccc2)/C1=N\c1ccccc1`, the GI50 in assay [18], in assay [1], in [2], in [3], in assay [19] and in [4] was > 100 µM (inactive) throughout. The GI50 in assay [5], in [6], in assay [7], in assay [8], in assay [9] and in assay [11] was > 100 µM (inactive) throughout. Besides, the GI50 in [12], in assay [13], in [14], in assay [15], in assay [16] and in [17] was > 100 µM (inactive) in each case.

`CCOC(=O)/C(=C/c1cc(OC)ccc1OC)CC(=O)O`: the GI50 in [1] is > 100 µM (inactive); in [2], > 100 µM (inactive); in assay [3], > 100 µM (inactive); in [4], > 31.6 µM (inactive); in assay [5], > 10 µM (inactive); in assay [6] it was > 31.6 µM (inactive). Besides, the GI50 in assay [7], in assay [8], in assay [9], in assay [10], in [11] and in assay [12] was > 100 µM (inactive) in each case. The GI50 in assay [13] is > 100 µM (inactive); in [14], 19.5 µM (inactive); in [15], > 100 µM (inactive); in assay [16], > 100 µM (inactive); in assay [17] it was > 100 µM (inactive).

Take `O=C(CC(C(=O)c1cccs1)c1ccsc1)c1ccc(Cl)cc1` (stereo not drawn): the GI50 in assay [18], in assay [1], in [2], in [3], in assay [19] and in assay [4] was > 100 µM (inactive) each time. Besides, the GI50 in assay [5], in assay [6], in [7], in assay [8], in [9] and in assay [12] was > 100 µM (inactive) in each case. Moreover, the GI50 in [13], in assay [14], in [15], in assay [16] and in [17] was > 100 µM (inactive) each time.

In the case of `[O-][S+]1CSSC1`, the GI50 in assay [1] is 18.7 µM (inactive); in assay [2] it was 19.6 µM (inactive); in assay [3] it was 27.4 µM (inactive); in assay [4], 20.7 µM (inactive); in assay [5], 36.3 µM (inactive); in assay [6], 2.56 µM (inactive). The GI50 was 15 µM (inactive) in assay [7]; 23.7 µM (inactive) in assay [8]; 12 µM (inactive) in [9]; 17.9 µM (inactive) in assay [10]; 19.9 µM (inactive) in assay [11]; 24.3 µM (inactive) in assay [12]. Besides, the GI50 in [13] was 31.3 µM (inactive); in assay [14], 15.6 µM (inactive); in assay [15], 2.2 µM (inactive); in assay [16], 19.7 µM (inactive); in [17] it was 28.1 µM (inactive).

As for `CC1=CC(=O)/C(=C(/C)NCCN(CCN/C(C)=C2\C(=O)C=C(C)OC2=O)CCN/C(C)=C2\C(=O)C=C(C)OC2=O)C(=O)O1`, the GI50 in [18], in assay [1], in assay [2], in assay [3], in assay [19] and in assay [4] was > 100 µM (inactive) throughout. The GI50 in assay [5], in assay [6], in assay [7], in assay [8], in assay [9] and in assay [12] was > 100 µM (inactive) each time. Moreover, the GI50 in assay [13] and in assay [16] was > 100 µM (inactive) in each case.

As for `N#CC(=C1C=CC(=NO)C=C1)c1ccc(Cl)cc1`, the GI50 in assay [1] is 13.6 µM (inactive); in assay [2] it was 19.1 µM (inactive); in [3], 15.7 µM (inactive); in assay [4], 2.29 µM (inactive); in assay [5], 15.3 µM (inactive); in [6] it was 2.36 µM (inactive). Further, the GI50 is 7.21 µM (inactive) in [7]; 24.7 µM (inactive) in [8]; 16.5 µM (inactive) in [9]; 3.52 µM (inactive) in assay [10]; 16 µM (inactive) in assay [11]; 22.2 µM (inactive) in assay [12]. The GI50 is 4.36 µM (inactive) in assay [14], 3.22 µM (inactive) in assay [15], 7.33 µM (inactive) in assay [16] and 15.1 µM (inactive) in assay [17].

Take `N#CC1=C(O)NC(O)=C(C#N)C1c1ccc(C2C(C#N)=C(O)NC(O)=C2C#N)cc1`: the GI50 was > 100 µM (inactive) in assay [1]; > 100 µM (inactive) in assay [2]; > 100 µM (inactive) in assay [3]; > 100 µM (inactive) in assay [4]; > 100 µM (inactive) in [5]; 28.3 µM (inactive) in assay [6]. In addition, the GI50 in [7] was > 100 µM (inactive); in [8] it was > 100 µM (inactive); in [9], 46.5 µM (inactive); in [10], > 100 µM (inactive); in assay [11] it was > 100 µM (inactive); in assay [12], > 100 µM (inactive). Further, the GI50 is > 100 µM (inactive) in [13]; > 100 µM (inactive) in assay [14]; 35.2 µM (inactive) in assay [15]; > 100 µM (inactive) in [16]; > 100 µM (inactive) in assay [17].

In the case of `Cc1ccc(S(=O)(=O)N(/N=C(\N)Oc2ccc(Cl)cc2)C(=N)Oc2ccc(Cl)cc2)cc1`, the GI50 in [1], in [2], in [3], in [4], in assay [5] and in [6] was > 100 µM (inactive) in each case. The GI50 in assay [7] was > 100 µM (inactive); in assay [8], > 100 µM (inactive); in assay [9], > 100 µM (inactive); in assay [10], > 100 µM (inactive); in [11], 74.1 µM (inactive); in assay [12], > 100 µM (inactive). The GI50 in assay [13], in assay [14], in assay [15], in [16] and in [17] was > 100 µM (inactive) in each case.

As to `O=C1NC(=S)NC(=O)C1=Cc1ccc([N+](=O)[O-])o1`, the GI50 in assay [1] was > 100 µM (inactive); in assay [2], 29.4 µM (inactive); in assay [3], 25 µM (inactive); in assay [4], 19.3 µM (inactive); in assay [5] it was > 100 µM (inactive); in assay [6], 27.1 µM (inactive). Besides, the GI50 is 23 µM (inactive) in [7]; 61 µM (inactive) in assay [8]; 16.3 µM (inactive) in [9]; 19.3 µM (inactive) in [11]; > 100 µM (inactive) in [12]; 21.1 µM (inactive) in [13]. Also, the GI50 in assay [14] is 46.9 µM (inactive); in assay [15], 17.6 µM (inactive); in [16] it was 22.9 µM (inactive); in assay [17], 19.5 µM (inactive).

In the case of `Nc1ncnc2c1ncn2C1C=CC(CP(=O)(O)O)C1` (stereo not drawn), the GI50 in assay [18] is > 100 µM (inactive); in [1], > 100 µM (inactive); in [2] it was > 100 µM (inactive); in [3], > 100 µM (inactive); in assay [19], 11 µM (inactive); in assay [4], > 100 µM (inactive). In addition, the GI50 in assay [5], in assay [7], in [8], in [9], in assay [10] and in assay [11] was > 100 µM (inactive) throughout. Besides, the GI50 in assay [12], in [13], in assay [14], in assay [15], in assay [16] and in assay [17] was > 100 µM (inactive) throughout.
